Source: patent US7772255B2, “Method of treating tumors with azaxanthones” (Supratek Pharma, Inc., priority 2005, dated 2010)

How the values were obtained:
B16F10/DX cells = experiment: B16 experimental metastasis model (Example 26); format: in vivo, mouse; details: B16F10/DX i.v. in C57BL/6 mice; Amlexanox 100 mg/kg daily p.o.; mean±SEM
Experimental: Amlexanox solution for injections was prepared according to the Example 4. B16F10/DX cell (2.0×10^5 cells per animal) were inoculated intravenously in female C57BL//6 mice (6-7 weeks old) and animals were then divided randomly into 4 groups (n=9 except for control group): 1) intact control (n=12, saline); 2) Amlexanox (100 mg/kg, daily p.o. administration); 3) TPT (2.0 mg/kg i.v. administration on day 1, 4, and 7); 5) Amlexanox (daily p.o. 100 mg/kg)+TPT (i.v. 2.0 mg/kg on day 1, 4, and 7). Intact control received oral administration with 10 ml/kg (volume/body weight) of saline, while Amlexanox was administrated orally and daily with a dose of 100 mg/kg in a volume of 10 ml/kg. The treatments were started from the day following the tumor cell implantation until the end of the protocol. However, TPT was administrated intravenously only on day 1, 4, and 7 after tumor implantation. The animal body weight was recorded as an index of treatment toxicity during the experiment.
The data in Table show metastasis formation in the lung in the mice implanted with B16F10/DX cells. The data are expressed as mean±SEM for the number of metastatic sites on the lung surface.

CSML100 cells [1] = experiment: Spontaneous metastasis model in mice (Example 27); format: in vivo, mouse
Experimental: Amlexanox solution for injections was prepared according to the Example 4. CSML100 cells (2.0×10^6 cells per animal) were inoculated subcutaneously to female A/J mice (6-7 weeks old). The animals were then divided randomly into 2 groups (n=9): Intact control (saline) and Amlexanox treated (100 mg/kg, daily i.v. injection for 10 consecutive days). The treatment started from the day following the tumor implantation. The measurement of tumor size was performed since day 11. On day 24, the tumors were surgically removed. The lung metastasis development was analyzed 40 days after the tumor resection.
The data in Table show spontaneous lung metastasis formation in this tumor model. The data are expressed as mean±SEM for the number of metastatic sites on the lung surface.

[2] = tested on: metastatic (Stage III-IV) breast cancer; experiment: Amlexanox in women with metastatic breast cancer whose primary tumors are removed surgically (Example 7); format: in vivo, human; details: 500 mg orally twice a day; baseline until nine months after administration and follow-up
Experimental: In this study, 44 women with metastatic (Stage III-IV) breast cancer whose primary tumors are removed surgically are treated by orally administering 500 mg amlexanox twice a day. The total dose, per patient, is 1,000 mg daily. Baseline assessments are performed at the start of the treatment (treated group) and these baseline results are compared with repeat assessments during various follow-up periods of this treatment. The treatment is conducted for at least ten consecutive days and it is continued further until substantial progression of the disease is noted. The study, which includes treatment of all patients and their follow-up, lasts for at least nine months or until disease progression in the last patient with responding or stable disease. […] In carrying out this study, the response rate and one year survival data for each of the patients in the treated group is determined and compared with an untreated group. […] If there is a delay of the substantial progression of the disease, then treatment is stopped when it is determined that substantial progression of the disease in that patient resumes. […] One week after the first administration of amlexanox, patients are clinically evaluated (adverse event review, concomitant medication and concurrent illness) and the following laboratory evaluations are conducted: hematology, blood chemistry and urinalysis. […]

CSML100 cells [3] = experiment: S100A4-positive lung metastasis tumor model, alone or in combinations (Example 25); format: in vivo, mouse; details: CSML100 i.v. in A/J mice, 10 days, mean±SEM
Experimental: Amlexanox solution for injections was prepared according to the Example 4. […] The animals were then divided randomly into 9 groups (n=9 except for control group): 1) intact control (n=13, saline); 2) Amlexanox (i.v. 100 mg/kg); 3) Amlexanox ([…]. 3 mg/kg); 5) Amlexanox ([…]. […] 10 mg/kg). […] The treatments were started on the day following the tumor cell implantation and continued for 10 consecutive days. […] The animal body weight was recorded as an index of treatment toxicity during the experiment. […] The data are expressed as mean±SEM for the number of metastatic sites on the lung surface.

[4] = tested on: S100A4-positive CSML100 cells; experiment: Metastasis formation by S100A4-positive CSML100 cells in animal model (Example 6); format: in vivo, mouse; details: 100 mg/kg i.v. daily for 10 days
Experimental: In both groups the injection volume was 5 ml/kg. The treatments were started from the day following the tumor cell implantation for 10 consecutive days. The animal body weight was recorded as an index of treatment toxicity during the experiment.
Starting from the day 10 after the cell implantation, one animal of the control group was sacrificed every day to monitor the metastasis development. All animals were sacrificed on day 18 for routine metastasis inspection. […] The metastatic colonies on the organ surface were enumerated immediately following the removal of the organ.
The data were expressed as mean±SEM for the number of metastatic sites.

CC(C)c1ccc2oc3nc(N)c(C(=O)O)cc3c(=O)c2c1 [Amlexanox, 2-amino-7-isopropyl-1-azaxanthone-3-carboxylic acid]
Lung Metastasis Number per Animal (B16F10/DX cells): 71.3 ± 15.5 | Lung metastasis number 40 days after s.c. tumor resection (CSML100 cells [1]; CSML100 s.c. in A/J mice, 100 mg/kg i.v. daily for 10 days, tumors removed day 24, mean±SEM, one animal (26 metastases) excluded): 1.00 ± 0.55 | Subcutaneous tumor size on day 14 (CSML100 cells [1]; CSML100 s.c. in A/J mice, 100 mg/kg i.v. daily injection for 10 days): 0.05 ± 0.02 g | Trial/control × 100% (CSML100 cells [1]; lung metastasis number 40 days after s.c. tumor resection, 100 mg/kg i.v. daily for 10 days): 96.3% | percentage of patients with little or no progression of the disease, compared to the non-treated group [2]: greater percentage of the patients in the group of patients treated with the amlexanox show little or no progression of the disease | Lung Metastasis Number per Animal (CSML100 cells [3]; Amlexanox i.v. 100 mg/kg daily): 29.6 ± 3.89 | Lung Metastasis Number per Animal (CSML100 cells [3]; Amlexanox p.o. 200 mg/kg daily): 26.2 ± 4.16 | Average of lung metastasis number per animal ([4]; CSML100 cells i.v. in female A/J mice, day 18, mean±SEM): 18.8 ± 2.3 | Trial/control × 100% ([4]; lung metastasis number, day 18): 48.5% | inhibition on metastases formation ([4]; mice inoculated CSML100 cells): significant inhibition on metastases formation | body weight loss ([4]; non-significant, A/J mice): less than 10%
